Laboratory results as given in US10538561B2, “Peptide for treating inflammatory diseases” (priority 2015, dated 2020).
Where a name gives a salt, the structure may show the parent alone. Marks after values point to notes of the source that are not given here.

Assays:
[1] = test system: IFN-γ; test: TNF-α stimulated IFN-γ secretion in HaCaT; assay type: cell-based, Human; settings: HaCaT + TNF-α
Method: (§1) Effect on pro-inflammatory cytokines against TNF-α/LPS+PMA stimulation: TNF-α; IFN-γ; TARC; TSLP; IL-6; IL-8: Cell lines: Human keratinocytes (HaCaT); test item (TI); IS181; experimental steps: pre-treatment of cells with TI for 2 hours; stimulation with TNF-α: 20 ng/ml; stimulation with LPS+PMA-10 μg/ml LPS+40 ng/ml PMA; supernatant collection for cytokine analysis after 24 hours; concentration range: 0.1 μg/ml-100 μg/ml (duplicate wells); cytokines: TNF-α; IFN-γ; TARC; TSLP; IL-6; IL-8. Method of estimating cytokines: ELISA; positive control: dexamethasone.
(§2) Cell line: HaCaT (Human Keratinocytes); TI Treatment regimen: Pretreatment for 2 h; TI Concentration range: 0.1 μg/ml-100 μg/ml (duplicate wells); TNF-α stimulation: 20 ng/ml; LPS+PMA stimulation: 10 μg/ml LPS+40 ng/ml PMA; Time point for supernatants collection: 24 h; Method of estimation: ELISA; Positive control: Dexamethasone

[2] = test system: TNF-α; test: LPS stimulated TNF-α secretion in RAW264.7; assay type: cell-based, Mouse; settings: RAW264.7 + LPS
Method: (§3) Effect on pro-inflammatory cytokines against LPS stimulation: TNF-α; IL-6; IL-1-β: Cell lines: Murine macrophage cell line (RAW264.7); test item: IS181; experimental steps: pretreatment of cells with TI for 2 hours; stimulation with LPS (100 ng/ml) for 24 hours; supernatant collection for cytokine analysis; concentration range: o.1 μg/ml-500 μg/ml (duplicate wells); Cytokines: TNF-α; IL-6; IL-1-β; Method of estimating cytokines: ELISA; positive control: dexamethasone.
(§4) Cell line: RAW264.7 (Mouse macrophages); TI treatment regimen: Pretreatment for 2 h; TI Concentration range: 0.1 μg/ml-500 μg/ml (duplicate wells); LPS stimulation: 100 ng/ml; Time point for supernatants collection: 24 h; Method of estimation: ELISA; Positive control: Dexamethasone

[3] = test system: IL-8; test: LPS+PMA stimulated IL-8 secretion in HaCaT; assay type: cell-based, Human; settings: HaCaT + LPS + PMA
Method: as §1, §2

[4] = test system: TARC; test: TNF-α stimulated TARC secretion in HaCaT; assay type: cell-based, Human; settings: HaCaT + TNF-α
Method: as §1, §2

[5] = test system: IL-6; test: LPS stimulated IL-6 secretion in RAW264.7; assay type: cell-based, Mouse; settings: RAW264.7 + LPS
Method: as §3, §4

[6] = test system: TNF-α; test: TNF-α level in TNF-α stimulated HaCaT; assay type: cell-based, Human
Method: as §1, §2

[7] = test system: IL-6; test: LPS+PMA stimulated IL-6 secretion in HaCaT; assay type: cell-based, Human
Method: as §1, §2

[8] = test system: TSLP; test: LPS+PMA stimulated TSLP secretion in HaCaT; assay type: cell-based, Human; settings: HaCaT + LPS + PMA
Method: as §1, §2

[9] = test system: IL-1-β; test: LPS stimulated IL-1-β secretion in RAW264.7; assay type: cell-based, Mouse; settings: RAW264.7 + LPS
Method: as §3, §4

[10] = test system: HaCaT (Human keratinocyte); test: LDH enzyme release assay; assay type: cell-based
Method: (§5) For testing Apoptosis the Human Keratinocytes (HaCaT) cell line has been employed. The growth conditions are DMEM containing 1% FBS. […] Test concentration range is IS181 is tested at the highest (Qualitative analysis) effective concentrations selected on the basis of Quantitative JC-1 assay. The method of estimation is Mitochondrial membrane depolarization by JC-1 assay (Early apoptosis), LDH enzyme release (Necrosis). Treatment regimen & time points are JC-1 assay—Single addition, 20 h; LDH assay—Single addition, 24 h; Positive control: Triton-X-100, Doxorubicin-hydrochloride
End-point: Percentage increase in LDH activity in treated cells with respect to untreated.

[11] = test system: Human Keratinocytes (HaCaT); test: Cell viability (MTT assay) in HaCaT; assay type: cell-based; settings: human
Method: (§6) Cell Lines/Cells: Human Keratinocytes (HaCaT); Human melanoma (SK-MEL-28); Human PBMCs. Test Item: IS181 Treatment regimen: Single addition—24 h, ^#Multiple additions (3)−72 h; Concentration range: 1 ng/ml-2 mg/ml (triplicate wells); Sera Condition: […] Method of estimation: MTT assay. […] Positive control: Triton-X-100, Doxorubicin Hydrochloride.

[12] = test system: Human melanoma (SK-MEL-28); test: Cell viability (MTT assay) in SK-MEL-28; assay type: cell-based; settings: human
Method: as §6

[13] = test system: HaCaT (Human keratinocyte) cell line; test: Mitochondrial membrane potential by JC-1 assay; assay type: cell-based
Method: as §5
Quantitative effect on Δψm (Red fluorescence/Green fluorescence) in HaCaT cells post 20 hours of treatment. […] Evaluation (Qualitative and quantitative) of differential JC-1 staining in treated cells after 20 h on incubation with the test peptides.

## C[C@@H]1C[C@H]2[C@@H]3CCC4=CC(=O)C=C[C@]4(C)[C@@]3(F)[C@@H](O)C[C@]2(C)[C@@]1(O)C(=O)CO [Dexamethasone, reference compound]
[1]; 1 μM
  IFN-γ % decrease with respect to TNF-α: 34.5%
  IFN-γ Conc (pg/ml): 31.2*** pg/ml
[1]; 10 μM
  IFN-γ % decrease with respect to TNF-α: 25.4%
  IFN-γ Conc (pg/ml): 35.5** pg/ml
[1]; 25 μM
  IFN-γ % decrease with respect to TNF-α: 31.2%
  IFN-γ Conc (pg/ml): 32.8** pg/ml
[2]; 0.5 μg /ml
  TNF-α % decrease with respect to LPS: 54.1%
  TNF-α Conc (pg/ml): 451.7*** pg/ml
[2]; 1 μg /ml
  TNF-α % decrease with respect to LPS: 70.4%
  TNF-α Conc (pg/ml): 291.8*** pg/ml
[2]; 10 μg/ml
  TNF-α % decrease with respect to LPS: 71.2%
  TNF-α Conc (pg/ml): 283.1*** pg/ml
[3]; 1 μM
  IL-8 % decrease with respect to LPS + PMA: 65.1%
  IL-8 Conc (pg/ml): 136.9*** pg/ml
[3]; 10 μM
  IL-8 % decrease with respect to LPS + PMA: 72.6%
  IL-8 Conc (pg/ml): 107.4*** pg/ml
[3]; 25 μM
  IL-8 % decrease with respect to LPS + PMA: 67.9%
  IL-8 Conc (pg/ml): 125.7*** pg/ml
[4]; 1 μM
  TARC % decrease with respect to TNF-α: 13.2%
  TARC Conc: 52.5 pg/mL
[4]; 10 μM
  TARC % decrease with respect to TNF-α: 13.5%
  TARC Conc: 52.3 pg/mL
[4]; 25 μM
  TARC % decrease with respect to TNF-α: 13.5%
  TARC Conc: 52.3 pg/mL
[5]; 0.5 μg /ml
  IL-6 % decrease with respect to LPS: 45.9%
  IL-6 Conc (pg/ml): 567.6** pg/ml
[5]; 1 μg /ml
  IL-6 % decrease with respect to LPS: 61.3%
  IL-6 Conc (pg/ml): 405.9*** pg/ml
[5]; 10 μg/ml
  IL-6 % decrease with respect to LPS: 72.3%
  IL-6 Conc (pg/ml): 291.2*** pg/ml
[6]; 1 μM
  TNF-α % decrease with respect to TNF-α: 17.6%
  TNF-α Conc: 17423.9 pg/mL
[6]; 10 μM
  TNF-α % decrease with respect to TNF-α: 31.2%
  TNF-α Conc: 14536.0 pg/mL
[6]; 25 μM
  TNF-α % decrease with respect to TNF-α: 4.7%
  TNF-α Conc: 20138.0 pg/mL
[7]; 1 μM
  IL-6 % decrease with respect to LPS + PMA: 100.0%
  IL-6 Conc (pg/ml): 0.0*** pg/ml
[7]; 10 μM
  IL-6 % decrease with respect to LPS + PMA: 94.8%
  IL-6 Conc (pg/ml): 0.8*** pg/ml
[7]; 25 μM
  IL-6 % decrease with respect to LPS + PMA: 84.2%
  IL-6 Conc (pg/ml): 2.4*** pg/ml
[8]; 1 μM
  TSLP % decrease with respect to LPS + PMA: 46.4%
  TSLP Conc (pg/ml): 66.6** pg/ml
[8]; 10 μM
  TSLP % decrease with respect to LPS + PMA: 41.9%
  TSLP Conc (pg/ml): 72.1** pg/ml
[8]; 25 μM
  TSLP % decrease with respect to LPS + PMA: 44.7%
  TSLP Conc (pg/ml): 68.7** pg/ml
[9]; 0.5 μg /ml
  IL-1-β % decrease with respect to LPS: 53.6%
  IL-1-β Conc (pg/ml): 9.6* pg/ml
[9]; 1 μg /ml
  IL-1-β % decrease with respect to LPS: 44.6%
  IL-1-β Conc (pg/ml): 11.4* pg/ml
[9]; 10 μg/ml
  IL-1-β % decrease with respect to LPS: 39.0%
  IL-1-β Conc (pg/ml): 12.6* pg/ml

## COc1cccc2c1C(=O)c1c(O)c3c(c(O)c1C2=O)C[C@@](O)(C(=O)CO)C[C@@H]3O[C@H]1C[C@H](N)[C@H](O)[C@H](C)O1 [Doxorubicin, Doxorubicin Hydrochloride, reference compound]
[10]; 0.1 μM
  % Increase with respect to untreated (LDH): −4.78%
  LDH Activity (mU/ml): 60.23 mU/ml
[10]; 1 μM
  % Increase with respect to untreated (LDH): −16.43%
  LDH Activity (mU/ml): 52.87 mU/ml
[10]; 10 μM
  % Increase with respect to untreated (LDH): ***125.92%
  LDH Activity (mU/ml): 142.92 mU/ml
[11]; 24 h
  cytotoxicity: up to 48%
[11]; 72 h
  cytotoxicity: > 88%
[12]
  cytotoxicity: up to 40%
[13]; 0.1 μM
  Green fluorescence intensity (RFU): 11.5 ± 0.71 RFU
  Red fluorescence intensity (RFU): ^#106.17 ± 15.32 ^ RFU
  Red fluorescence intensity/Green fluorescence intensity: 9.23
[13]; 1 μM
  Green fluorescence intensity (RFU): 11.5 ± 0.71 RFU
  Red fluorescence intensity (RFU): 93.25 ± 22.98 RFU
  Red fluorescence intensity/Green fluorescence intensity: 8.11
[13]; 10 μM
  Green fluorescence intensity (RFU): 9.83 ± 4.48 RFU
  Red fluorescence intensity (RFU): 49.83 ± 1.65 RFU
  Red fluorescence intensity/Green fluorescence intensity: 5.07
